Measurements: article PMC12315900, “A twist in the tale: shifting from covalent targeting of a tyrosine in JAK3 to a lysine in MK2” (RSC Medicinal Chemistry, 2025)

Experiments:
JAK3 [1] = molecular target: T1, JAK3 (Homo sapiens, UniProt P52333); assay: biochemical
T1 sequence (P52333 1-1124): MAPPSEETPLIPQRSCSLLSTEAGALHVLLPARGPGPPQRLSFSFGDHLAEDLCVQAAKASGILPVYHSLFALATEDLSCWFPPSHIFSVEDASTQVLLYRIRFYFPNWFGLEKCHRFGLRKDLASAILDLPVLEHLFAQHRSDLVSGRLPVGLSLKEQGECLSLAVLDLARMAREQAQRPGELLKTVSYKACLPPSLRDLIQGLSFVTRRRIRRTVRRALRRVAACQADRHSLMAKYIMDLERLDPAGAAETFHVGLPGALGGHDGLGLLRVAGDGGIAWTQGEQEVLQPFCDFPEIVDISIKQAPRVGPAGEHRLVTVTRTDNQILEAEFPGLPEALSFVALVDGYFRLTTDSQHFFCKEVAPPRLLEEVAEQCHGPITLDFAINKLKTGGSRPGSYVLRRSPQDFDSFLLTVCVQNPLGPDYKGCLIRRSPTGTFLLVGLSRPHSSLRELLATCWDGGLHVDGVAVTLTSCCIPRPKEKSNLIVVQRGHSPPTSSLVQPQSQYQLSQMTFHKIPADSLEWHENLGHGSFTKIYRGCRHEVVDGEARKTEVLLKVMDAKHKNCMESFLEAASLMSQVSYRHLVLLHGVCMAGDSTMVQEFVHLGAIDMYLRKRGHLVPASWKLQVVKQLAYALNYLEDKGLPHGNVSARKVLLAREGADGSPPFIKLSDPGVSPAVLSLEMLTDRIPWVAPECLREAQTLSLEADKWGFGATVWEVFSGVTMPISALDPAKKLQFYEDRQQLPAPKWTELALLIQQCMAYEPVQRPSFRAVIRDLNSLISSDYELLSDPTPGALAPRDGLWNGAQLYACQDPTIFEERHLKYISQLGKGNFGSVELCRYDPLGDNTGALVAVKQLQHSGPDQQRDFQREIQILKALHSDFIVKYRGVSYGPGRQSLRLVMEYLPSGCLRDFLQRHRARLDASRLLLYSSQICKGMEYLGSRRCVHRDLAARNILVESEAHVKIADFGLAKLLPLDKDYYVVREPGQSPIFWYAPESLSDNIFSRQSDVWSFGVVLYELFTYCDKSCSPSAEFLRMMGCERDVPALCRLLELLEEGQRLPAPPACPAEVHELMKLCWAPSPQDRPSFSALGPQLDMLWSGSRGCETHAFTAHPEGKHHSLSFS

solubility observation = format: physicochemical
Description: While the warhead now cannot rotate away anymore, it also is very limited in the trajectory it can assume prior to/during the bond-forming event. On the other hand, the tyrosine side chain is also a rather rigid structure (especially considering the degrees of freedom of cysteine or e.g. lysine in comparison) and if two very rigid structures are supposed to react with each other, a proper pre-orientation and a binding mode that enables a strain-free reaction trajectory play a much bigger role than for the reaction of two more flexible moieties like, for example, acrylamide and cysteine.

JAK3 [2] = molecular target: T1, JAK3; conditions: JAK3 ELISA, same assay conditions (starting at 10 μM)
MK2 [3] = system: MK2; parameters: method as in PMID 24900358; conditions: @100 μM ATP; cited from earlier work
MK2 [4] = molecular target: MK2 (Homo sapiens, UniProt P49137); assay: biochemical
MK2 [5] = molecular target: T2, MK2 (Homo sapiens, UniProt P49137, DEL216-236/P237G); assay: intact protein MS with MK2 (covalent modification); conditions: for Ratio [%] (AUC[mod]/(AUC[unmod]+AUC[mod])): 50 µM protein, 250 µM compound, room temperature, 3 hours, relative quantification from deconvoluted spectra; for covalent modification of MK2 (covalent binding): 5-fold excess compound over MK2, rt, 3 h
Description: using a NanoDrop 2000 spectrophotometer (Thermo Scientific), with molar extinction coefficient
and molecular weight specified using the "other protein (E & MW)" setting.
at 4 °C for 24 hours. For the negative control, an equivalent volume of DMSO was added to the
protein solution. To quench the reaction, 0.1% formic acid in the double-distilled water (ddH₂O)
was added in a 1:10 ratio (v/v), followed by desalting of the samples using C8 stage tips with the
MS data acquisition was carried out on a Time-of-Flight (TOF)
LC/MS system (Agilent 6200 series) equipped with a positive electrospray ionization (ESI) source.
A volume of 5 µL of the desalted sample was injected for mass spectrometry (MS) analysis. To
prevent cross-sample contamination, blank injections were run between each sample. Data were
deconvoluted and analyzed using Agilent’s MassHunter Bioconfirm software, applying a scan
range of 600–2000 m/z, a mass range of 10–100 kDa, a mass step of 1 Da, and a baseline
at room temperature for 3 hours. For the negative control, an equivalent volume of DMSO was
added to the protein solution. To quench the reaction, 0.1% formic acid in the double -distilled
water (ddH₂O) was added in a 1:10 ratio (v/v), followed by desalting of the samples using C8 stage
The UHPLC-system consisted of an Agilent
(G1316C) and a valve drive (G1170A) equipped with a 2-pos 6-port valve for online desalting of the
samples. Mobile phase A (water + 0.1 % (v/v) formic acid) and mobile phase B (acetonitrile + 0.1
% (v/v) formic acid) were used for gradient elution on a BIOshell Protein C4 HPLC column (5 cm x
2.1 mm, 3.4 μm, 400 Å; Merck, Darmstadt, Germany). The flow rate was set to 1.0 mL/min with
the following gradient settings: 0−0.2 min: 10 % B, 0.2−2.2 min: 10−80 % B, 2.2−3 min: 80 % B,
whole analysis. The UHPLC-system was coupled to a TripleTOF 5600+ mass spectrometer from
Sciex (Darmstadt, Germany) using a Duospray ion source in positiveionization mode and the
following source and MS parameters: curtain gas (CUR): 30 psi, nebulizing gas (GS1): 50 psi,
heater gas (GS2): 40 psi, ion spray floating voltage (ISVF): 5500 V, source temperature (TEM): 450
°C, collision energy (CE): 30 V, declustering potential (DP): 230 V. The acquisition was performed
in the TOF mode of the mass spectrometer using a mass range from 100 to 5000 m/z with an
accumulation time of 100 ms. Moreover, the IntactProteinMode -script from Sciex was used to
optimize MS settings for protein analysis. The Analyst TF 1.8.1 software and the PeakView
software 2.2.0 (both Sciex) were used for data acquisition and data analysis, respectively. Mass
spectra were deconvoluted using the BioToolKit 2.2.0 software package.
Relative quantification was performed with the area under curve (AUC) of each protein species in
the deconvoluted mass spectra with the PeakView software’s integration tool.
𝑅𝑎𝑡𝑖𝑜 [%] = 𝐴𝑈𝐶[𝑚𝑜𝑑] × 100

MK2 [6] = molecular target: T2, MK2; assay: kinact/KI from time- and concentration-dependent intact protein MS
Description: Determination of Kinetic Parameters
kinact/KI was measured based on time- and concentration-dependent analysis of intact protein
mass spectra using the bimolecular model described by the equations seen below, as reported
[PI]: concentration of the protein-compound complex, [PI*]: concentration
of the covalent protein-compound complex, [PI*] ≈ [PI] if kinact is relatively high. [P]0, [I]0:
concentration of initial protein and compound. t: incubation time(s).
When reaching each time point of incubation
(15 min, 30 min, 60 min, 120 min, 180 min), an aliquot of the reaction mixture was transferred into
1 % formic acid in ddH2O using a multichannel pipette (10 µL of sample added to 90 µL
ddH2O/1% formic acid), to stop the reaction at the exact time point. MS was performed and %
occupancy was calculated in the same way (see equations below).
time- and concentration -dependent % occupancy: import data as XY table. A nonlinear
regression fit was chosen to fit the curves, kinact/KI was set up as the constraint type of “Shared
value for all datasets”, initial value as 0, the rest settings are as default.
𝑂𝑐𝑐𝑢𝑝𝑎𝑛𝑐𝑦 [%] = 𝐼𝑚𝑜𝑑 × 100
[𝑃𝐼 ] = [𝑃]0[𝐼]0 ([𝑃] −[𝐼] )×𝑘 /𝐾 ×𝑡
𝑂𝑐𝑐𝑢𝑝𝑎𝑛𝑐𝑦 [%] = [𝑃𝐼] × 100

[7] = buffer stability at pH 7.4 (HPLC); format: physicochemical; conditions: pH 7.4, over the incubation time

Chain of MK2 (Homo sapiens, UniProt P49137) (P49137 whole entry): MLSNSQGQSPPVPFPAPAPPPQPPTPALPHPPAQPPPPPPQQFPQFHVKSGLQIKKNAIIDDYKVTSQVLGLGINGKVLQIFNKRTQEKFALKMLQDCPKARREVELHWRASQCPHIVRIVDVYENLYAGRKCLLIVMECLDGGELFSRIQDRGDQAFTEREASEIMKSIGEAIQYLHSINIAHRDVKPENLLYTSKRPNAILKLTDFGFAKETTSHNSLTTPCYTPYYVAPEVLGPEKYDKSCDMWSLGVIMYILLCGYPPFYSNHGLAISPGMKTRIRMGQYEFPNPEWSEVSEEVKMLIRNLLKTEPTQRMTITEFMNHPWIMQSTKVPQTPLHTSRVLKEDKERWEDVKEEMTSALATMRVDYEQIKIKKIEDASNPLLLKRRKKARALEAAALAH
T2 sequence (P49137 with tags, fused parts or gaps DEL216-236/P237G): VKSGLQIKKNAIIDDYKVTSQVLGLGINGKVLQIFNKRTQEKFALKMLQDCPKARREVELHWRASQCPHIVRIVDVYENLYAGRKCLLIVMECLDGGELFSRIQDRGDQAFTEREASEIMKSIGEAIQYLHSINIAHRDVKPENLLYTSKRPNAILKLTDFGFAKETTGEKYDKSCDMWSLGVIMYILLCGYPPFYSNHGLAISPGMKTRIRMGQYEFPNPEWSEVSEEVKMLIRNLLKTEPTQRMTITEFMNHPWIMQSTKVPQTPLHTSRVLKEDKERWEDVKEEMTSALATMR

In the case of `N#Cc1cccc(-c2cn(C3CCCCC3)c3c2cnc2[nH]ccc23)c1` [compound 6], the IC50 (JAK3 [1]) is reported as 5.2 nM.
With `O=c1c2cc(OS(=O)(=O)F)ccc2c2cnc3[nH]ccc3c2n1C1CCCCC1` [compound 35] the solubility (solubility observation) was “low solubility” and the inhibitory activity (JAK3 [2]) was “no relevant inhibitory activity”.
For `O=C(c1ccc(-c2ccc(Cl)cc2)o1)N(Cc1ccccn1)c1ccc(N2CCNCC2)cc1` [compound 41, reference compound], the IC50 (MK2 [3]) is listed as 110 nM and the IC50 (MK2 [4]) is listed as over 5 µM.
In the case of `O=C(c1ccc(-c2ccc(Cl)c(OS(=O)(=O)F)c2)o1)N(Cc1ccccn1)c1ccc(N2CCNCC2)cc1` [compound 42], the “Ratio [%] (AUC[mod]/(AUC[unmod]+AUC[mod]))” value (MK2 [5]) is reported as 94.28%, the “covalent modification of MK2 (covalent binding)” value (shortened to “covalent modification of MK2”) (MK2 [5]) is reported as 95% and the kinact/KI (MK2 [6]) is reported as 1.12 M⁻¹ s⁻¹.
For `O=C(c1ccc(-c2ccc(Cl)cc2)o1)N(Cc1ccccn1)c1ccc(N2CCNCC2)c(OS(=O)(=O)F)c1` [compound 43], the “covalent modification of MK2” value (MK2 [5]) was “no binding at all”.
In the case of `CC(C)(C)OC(=O)N1CCN(c2ccc(NC(=O)c3ccc(-c4ccc(Cl)cc4)o3)cc2S(=O)(=O)F)CC1` [compound 64], the buffer stability [7] is reported as “some degradation” and the “covalent modification of MK2” value (MK2 [5]) is reported as 15%.
In the case of `O=C(c1ccc(-c2ccc(Cl)cc2)o1)N(Cc1ccccn1)c1ccc(N2CCNCC2)c(S(=O)(=O)F)c1` [compound 65], the “Ratio [%] (AUC[mod]/(AUC[unmod]+AUC[mod]))” value (MK2 [5]) is reported as 14.51% and the “covalent modification of MK2” value (MK2 [5]) is reported as 15%.
Work on `O=C(c1ccc(-c2ccc(Cl)c(O)c2)o1)N(Cc1ccccn1)c1ccc(N2CCNCC2)cc1` [compound 66] yielded an IC50 (MK2 [4]) of over 5 µM.
Compound `O=C(c1ccc(-c2ccc(Cl)cc2)o1)N(Cc1ccccn1)c1ccc(N2CCNCC2)c(O)c1` [compound 67] has an IC50 (MK2 [4]) of over 5 µM.
